Common to all, as to format: physicochemical
One series can be described thus: Hot stage XRD.
Series [1] can be described thus: Stability evaluation of crystal form in a dry state at room temperature. As to conditions: placed in a dry state at room temperature for 3 days.
The nature of series [2]: TGA (thermogravimetric analysis).
Series [3] can be described thus: DVS (dynamic moisture adsorption analysis). The settings on record: 0% RH-80% RH.
Series [4] in a line: Crystal form competitive experiment. The settings on record: in ethanol and in a mixed solvent of ethanol/water at room temperature. The protocol: (§1) A competitive experiment between crystal form 1 and crystal form A of polymyxin sulfate was carried out to investigate crystal form stability of the two crystal forms in the solvent, water and ethanol, which are commonly used in the preparation, and to evaluate the conversion of the two crystal forms, in order to provide reference for subsequent preparation operations such as granulation.
1. Equal amounts of samples of crystal form 1 and form A were taken and mixed uniformly to obtain an initial mixed sample, which was used for XRD detection (FIG. 14).
2. The uniformly-mixed sample was divided into two portions, to one of which was added 200 μL ethanol, and to another of which was added 300 μL mixed solvent of ethanol/water=5/1 (v/v), to form a suspension. The suspension was stirred at room temperature, and centrifuged and sampled at different times for XRD detection.

Series [5] is described as follows: Crystal mush experiment at room temperature. As to conditions: in ethanol and in a mixed solvent of ethanol/water at room temperature. The protocol:
as §1

This is an account of results in patent US20210283213A1, “CRYSTAL OF POLYMYXIN B1 SULFATE, POLYMYXIN B2 SULFATE OR THEIR MIXTURE AND PREPARATION METHOD THEREOF” (Hubei Ruihaoanke Pharmaceutical Technology Development Co., …, priority 2016, published 2021).

Turning to polymyxin B1 sulfate [crystal form 1], the “crystal form change on heating” value in “Hot stage XRD” was “The crystal form has not changed when heating up to 170 °C”. Moreover, in series [1], the Stability evaluation result was “Unstable, the crystal form changed to crystal form A when placed”. Besides, the decomposition temperature result in series [2] was “XRD, and the decomposition temperature was 222 °C”. In addition, the hygroscopicity entry in series [3] is “extremely strong hygroscopicity”.
Take polymyxin B1 sulfate [crystal form A]: the “most stable crystal form (competitive experiment)” value in series [4] was “most stable crystal form”. Besides, the decomposition temperature result in series [2] was “with hot stage XRD, and the decomposition temperature was 213 °C”. Besides, the hygroscopicity result in series [3] is given as “extremely strong hygroscopicity”. In series [5], the “most stable crystal form (crystal mush experiment)” value is listed as “most stable crystal form”.
